The record followed here is publication PMC4683533, “Discovery of novel INK4C small-molecule inhibitors to promote human and murine hematopoietic stem cell ex vivo expansion” (Scientific Reports, 2015).

Entries after “also recorded” stand apart in the source; their conditions may differ.

One data set deals with KG-1. Put plainly: MTT proliferation assay on leukemia cell line. The data set is classed as cell-based. An excerpt:
(§1) With confirmation of compound 40 promoting the expansion of HSCs, we further examined whether it might also increase the risk of malignant diseases. In order to determine the effect of compound 40 on hematological tumorigenesis, proliferation of both leukemia cell lines (KG-1 and KG-1a) and myeloma cell lines (MM.1S and RPMI 8226) was further investigated by a standard MTT assay.
(§2) To evaluate the toxicity of our top compounds, we performed a cell proliferation assay using 32D cells as well as leukemia cell lines and myeloma cell lines. Weihi-3 cells were cultured at 37 °C under 5% CO2 in RPMI 1640 medium supplemented with 10%FBS. After 48 h, the supernatant was collected and filtered. 32D cells were cultured in RPMI 1640 with 10% FBS and 10% supernatant collected from Weihi-3 cells. 8,000 32D cells or leukemia cell line (KG-1 or KG-1a) or myeloma cell line (MM.1S or RPMI 8226) were plated in a 96-well plate in 198 μL culture media per well, and then cultured (37 °C, 5% CO2) overnight. 2 μL of serially diluted compounds dissolved in saline or DMSO were added to each well and incubated (37 °C, 5% CO2) for 72 h. The concentration of DMSO was equal to the one in corresponding compound group. 20 μL of MTT solution was added to each well and then incubated (37 °C, 5% CO2) for 4 h. The percentage of cell survival was determined using the MTT assay, as previously described. The data was analyzed using GraphPad Prism v6.0.

The test system of another data set is KG-1a. Put plainly: MTT proliferation assay on leukemia cell line. The data set is classed as cell-based.
Excerpt: as §1, §2
(In general: Tetrazolium assays rely on reduction of a dye to a coloured formazan, in cell work by metabolically active cells.)

Data set [1] deals with c-Kit-enriched mouse BM cells (HSPC, LT-HSCs). Put plainly: ex vivo bulk culture of c-Kit-enriched BM cells with flow cytometry phenotyping. The note with it: 5 days culture with cytokines. The data set is classed as cell-based. As for the experimental part:
To investigate the effect of p18SMI compounds on murine HSCs, c-Kit-enriched mouse BM cells were cultured for 5 days with media containing cytokines and the p18SMI compounds. […] Lin^−Sca-1^+(LS) cells were further analyzed using a combination of CD150 and CD48 (SLAM code) biomarkers for HSC identification. CD150^+ CD48^−KSLs (hereafter referred to as SLAM^+) cells are enriched for long term (LT)-HSCs.
HSCs expansion medium consists of BIT9500 (Stem Cell Technologies) supplemented with 50 ng/mL recombinant mouse (rm) SCF, 20 ng/mL FMS-like tyrosine kinase 3 ligand (Flt3L) and 10 ng/mL thrombopoietin (Tpo) (all from PeproTech, Inc.). p18SMI compounds were added where indicated. Bone marrow cells were harvested from C57BL/6 mice and made into a single-cell suspension. After immunomagnetic c-Kit enrichment (cKit-conjugated microbeads [MiltenyiBiotec, Bergisch-Gladbach]), cells were washed and resuspended in HSCs expansion medium. After culture, total nucleated cell counts were obtained, and a fraction of mononuclear cells (MNCs) or whole bone marrow cells were stained for flow cytometry analysis. Frequency of each cell population was determined by independently analyzing more than 5 × 10^5 cells per sample in triplicate.
For stem-cell quantitation, the cultured bone marrow nucleated cells were co-stained with a combination of PE-Cy7 labeled antibodies against mouse CD3, CD4, CD8, B220, Gr-1, Mac-1 and TER-119, anti-Sca-1-PercpCy5.5, anti-CD48-PE and anti-CD150-APC (all from Biolegend). DAPI was used for dead-cell discrimination. Due to the presence of cytokine stem cell factor (SCF), we could not detect the c-Kit marker of those cultured cells. […] Flow cytometry and flow sorting were conducted with a CyAn (DakoCytomation) or a FACSCalibur system (BD Biosciences). FlowJo software Version 7.6.2 (TreeStar) was used for data analysis.
(A flow cytometer gives signals particle by particle.)

Data set [2] relates to c-Kit-enriched BM cells (progenitor cells, HSPCs, LT-HSCs). Put plainly: CFSE cell division assay. The note with it: LT-HSC. The data set is classed as cell-based, mouse. The text has this:
We have previously shown that deficiency of p18 may enhance HSCs expansion by inducing primitive phenotypes after each cell division in vivo[19]. To obtain direct evidence that compound 40 promotes primitive phenotypes after each cell division, we measured cell divisions in distinct immunophenotypically-defined populations of cells treated with p18SMI compound. 5- (and 6-) carboxy-fluorescein diacetatesuccinimidylester (CFSE) dye was used to label the c-Kit-enriched BM cells before culture. Surface markers for progenitor cells, HSPCs and LT-HSCs were used to co-stain the BM cells that were harvested 5 days after treatment with the p18SMI compound. The number of initial cell divisions was measured based on the intensity of CFSE in each cell population. Consistent with previous phenotype results, little effect on the progenitor cells and HSPCs populations was observed (Fig. 5A).
Prior to culture, cKit-enriched BM cells (1 × 10^6/mL) were labeled with 5- (and 6-) carboxy-fluorescein diacetatesuccinimidylester (CFSE) dye (3 μM, Molecular Probes) in PBS supplemented with 0.1% bovine serum albumin. Labeling was performed in the dark at 37 °C for 10 min. […] During cell division, CFSE is distributed equally between daughter cells so that the generation of cells could be reflected by the content of CFSE and measured by the intensity of fluorescence. […]

A further data set relates to 32D cells. Put plainly: MTT cell proliferation assay, general cytotoxicity. It is filed as cell-based. As for the experimental part:
First, a cell-proliferation assay was performed on the immortalized myeloblast-like cell line 32D cells to evaluate general cytotoxicity. […] We also evaluated cytotoxicity using primary hematopoietic cells.
as §2

For `O=C([O-])c1ccc(S(=O)(=O)NC2CCCCC2)cc1.[Na+]` [Compound 40, sodium 4-(N-cyclohexylsulfamoyl)benzoate], the “enhancement of proliferation (MTT)” value in the data set with KG-1 (any concentration) is “did not enhance; also recorded: no activity”. The “effect on leukemia cell line” value in the data set on KG-1 (high concentration (20 μM)) is listed as “no effect”. In the data set with KG-1a (any concentration), the “enhancement of proliferation (MTT)” value is listed as “did not enhance; also recorded: no activity”. Also, the “effect on leukemia cell line” value in the data set with KG-1a (high concentration (20 μM)) is listed as “no effect”. For the same compound, in data set [1], the “increase of absolute number of Lin-Sca-1+ hematopoietic stem/progenitor cells (HSPC)” value was 2.29 fold, the “increase of number of LT-HSCs (CD150+CD48− SLAM+)” value turned out to be 2.61 fold and the “total cellularity (total cell)” value is reported as “slight increase”. Moreover, the “% Divided” value in data set [2] was 65.2%. Also, in the data set with 32D cells, the “cytotoxicity toward 32D cells” value was “did not show significant cytotoxicity; also recorded: not cytotoxic”. Besides, the “cytotoxic effects (cell viability, MTT)” value in the data set on 32D cells (25 μM) is on record as “did not show any cytotoxic effects”. The “cell viability (MTT)” value in the data set with 32D cells (50 μM, thought to be due to cytotoxicity of the solvent DMSO) is “only slight decreases in cell viability”.
